From patent US20260201008A1, “SECRETIN-DERIVED GLP1R SELECTIVE AGONISTS” (GUBRA A/S, priority 2023, published 2026)
Where two headings read alike, the source gives them in different places. One block for each compound: values may come before it. Numbered stars: 1 amine (or outer) side, 2 acyl side, 3 side chain; on linkers, the order of the positions; unused ones are H or OH. Square brackets hold non-standard residues; d marks the D form. Side chains are listed from the residue outwards. Peptide text beside a SMILES is read from it. * marks the point of attachment. C18 diacid = O=C(O)CCCCCCCCCCCCCCCCC(=O)*; γGlu = O=C(O)[C@H](CCC(=O)[*:2])N[*:1]; AEEA = NCCOCCOCC(=O)O; Aib = CC(C)(N)C(=O)O

Legend:
SCTR = SCTR (Homo sapiens, UniProt P47872); assay: hSCTR potency, cAMP accumulation in CHO-K1 cells stably overexpressing hSCTR; type: cell-based; parameters: alternatively Euroscreen ES-712-AF; FAST-0161L; host or cells: CHO-K1; conditions: read-out: pEC50 hSCTR (converted)
Sequence of SCTR (P47872 23-440): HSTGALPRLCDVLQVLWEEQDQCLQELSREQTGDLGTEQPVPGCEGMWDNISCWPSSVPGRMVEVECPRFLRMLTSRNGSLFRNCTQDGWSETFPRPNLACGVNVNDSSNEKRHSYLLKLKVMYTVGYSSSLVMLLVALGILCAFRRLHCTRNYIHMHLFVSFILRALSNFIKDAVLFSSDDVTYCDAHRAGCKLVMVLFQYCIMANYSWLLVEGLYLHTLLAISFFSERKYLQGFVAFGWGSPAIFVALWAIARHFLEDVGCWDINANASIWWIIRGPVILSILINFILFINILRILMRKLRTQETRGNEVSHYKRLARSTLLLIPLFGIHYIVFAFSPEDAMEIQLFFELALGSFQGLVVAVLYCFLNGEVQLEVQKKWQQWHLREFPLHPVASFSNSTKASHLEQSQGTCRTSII
Source text: (§1) Crude library peptides are screened in 10-fold serial dilutions of 5 concentrations, n=1 time. Tip change is done for the first two serial dilutions. Compound starting concentration (top) will be adjusted throughout the study if needed.
(§2) Purified peptides are screened in 3-fold serial dilutions of 11 concentrations, n=2 times. Tip change is done for all serial dilutions. Compound starting concentration (top) will be adjusted throughout the study. If the top concentration is adjusted or a 5-fold difference in calculated EC50 values is observed, n is increased by 1. EC50 values were calculated by nonlinear regression using sigmoid concentration-response with variable slope.
(§3) Frozen division arrested CHO-K1 cells stably overexpressing the hSCTR were obtained from PerkinElmer (ES-712-AF). Alternatively, a CHO-K1 cell line stably overexpressing the hSCTR was obtained from Euroscreen (FAST-0161L), expanded, aliquoted and frozen. An aliquot was thawed and plated in DPBS with 0.05% casein and 0.5 mM IBMX as 2000 cells/well in a 384-well format. The cells were then immediately stimulated for 30 min at room temperature with graded doses of test compound using human secretin (synthesized at Gubra) as a positive control. cAMP accumulation was measured using a Cisbio assay for Gs coupled receptors (cat. no. 62AM4PEC), where the assay reagents were added as per the manufacturer's instructions and time-resolved fluorescence energy transfer recorded after one hour on a CLARIOstar (BMG Labtech) plate reader.

GLP1R = GLP1R (Homo sapiens, UniProt P43220); assay: hGLP1R potency, cAMP accumulation in CHO-K1 cells stably overexpressing hGLP1R; type: cell-based; parameters: host or cells: CHO-K1; conditions: for Selectivity: SCTR EC50/GLP1R EC50 ratio
Sequence of GLP1R (P43220 24-463): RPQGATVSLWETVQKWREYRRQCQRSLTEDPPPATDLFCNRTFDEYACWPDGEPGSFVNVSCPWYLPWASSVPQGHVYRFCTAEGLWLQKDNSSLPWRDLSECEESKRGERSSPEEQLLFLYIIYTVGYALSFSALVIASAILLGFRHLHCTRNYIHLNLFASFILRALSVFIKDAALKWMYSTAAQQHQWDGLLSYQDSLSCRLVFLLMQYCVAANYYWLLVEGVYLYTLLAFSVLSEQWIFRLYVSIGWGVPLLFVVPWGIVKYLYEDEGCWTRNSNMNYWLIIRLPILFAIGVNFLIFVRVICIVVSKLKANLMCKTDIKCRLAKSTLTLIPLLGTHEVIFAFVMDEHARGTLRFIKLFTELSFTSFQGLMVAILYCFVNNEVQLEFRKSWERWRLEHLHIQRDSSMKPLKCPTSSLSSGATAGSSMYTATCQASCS
Source text: as §1, §2
as §3, with “A” for “Frozen division arrested CHO-K1 cells stably overexpressing the hSCTR were obtained from PerkinElmer (ES-712-AF). Alternatively, a”, “hGLP1R” for “hSCTR”, “(FAST-0145L),” for “(FAST-0161L),”, “GLP-1(7-36)” for “secretin”

[1] = Table 2, extended 30 amino acid peptides
[2] = Table 2, extended 30 amino acid peptides, read-out: PEC50 hGLPR1 (converted)
[3] = Table 3, position X^10 variants of GUB06-046
[4] = Table 4, position X12 variants of GUB06-046

SMILES: CC(C)C[C@H](NC(=O)[C@H](Cc1ccccc1)NC(=O)[C@H](CCCNC(=N)N)NC(=O)[C@H](CCC(N)=O)NC(=O)[C@H](CCC(=O)O)NC(=O)[C@H](C)NC(=O)[C@H](C)NC(=O)CNC(=O)[C@H](CCC(=O)O)NC(=O)[C@H](CCCCNC(=O)COCCOCCNC(=O)COCCOCCNC(=O)CC[C@H](NC(=O)CCCCCCCCCCCCCCCCC(=O)O)C(=O)O)NC(=O)[C@H](CC(C)C)NC(=O)[C@H](CCCNC(=N)N)NC(=O)[C@H](CO)NC(=O)[C@@H](NC(=O)[C@H](CC(=O)O)NC(=O)[C@H](CO)NC(=O)[C@@H](NC(=O)[C@H](Cc1ccccc1)NC(=O)[C@@H](NC(=O)CNC(=O)[C@H](CCC(=O)O)NC(=O)C(C)(C)NC(=O)[C@@H](N)Cc1c[nH]cn1)[C@@H](C)O)[C@@H](C)O)C(C)C)C(=O)N[C@@H](CCC(N)=O)C(=O)N[C@@H](Cc1c[nH]cn1)C(=O)N[C@@H](CC(C)C)C(=O)N[C@H](C(=O)N[C@@H](CCC(=O)O)C(=O)N[C@@H](C)C(=O)N[C@@H](CCC(=O)O)C(N)=O)C(C)C [compound 204] (H-H[Aib]EGTFTSDVSRLK([AEEA-AEEA-γGlu-C18 diacid])EGAAEQRFLQHLVEAE-NH2)
- EC50 (SCTR; [1]): 2510 nM
- Selectivity (GLP1R; [1]): 285714
- EC50 (GLP1R; [2]): 0.01 nM

SMILES: CC(C)C[C@H](NC(=O)[C@H](Cc1ccccc1)NC(=O)[C@H](CCCNC(=N)N)NC(=O)[C@H](CCC(N)=O)NC(=O)[C@H](CCC(=O)O)NC(=O)[C@H](C)NC(=O)[C@H](C)NC(=O)CNC(=O)[C@H](CCC(=O)O)NC(=O)[C@H](CCCCNC(=O)COCCOCCNC(=O)COCCOCCNC(=O)CC[C@H](NC(=O)CCCCCCCCCCCCCCCCC(=O)O)C(=O)O)NC(=O)[C@H](CC(C)C)NC(=O)[C@H](CCCNC(=N)N)NC(=O)[C@H](CO)NC(=O)[C@@H](NC(=O)[C@H](CC(=O)O)NC(=O)[C@H](CO)NC(=O)[C@@H](NC(=O)[C@H](Cc1ccccc1)NC(=O)[C@@H](NC(=O)CNC(=O)[C@H](CCC(=O)O)NC(=O)C(C)(C)NC(=O)[C@@H](N)Cc1c[nH]cn1)[C@@H](C)O)[C@@H](C)O)C(C)C)C(=O)N[C@@H](CCC(N)=O)C(=O)N[C@@H](Cc1c[nH]cn1)C(=O)N[C@@H](CC(C)C)C(=O)N[C@H](C(=O)N[C@@H](C)C(=O)N[C@@H](C)C(=O)N[C@@H](CCC(=O)O)C(N)=O)C(C)C [compound 206] (H-H[Aib]EGTFTSDVSRLK([AEEA-AEEA-γGlu-C18 diacid])EGAAEQRFLQHLVAAE-NH2)
- EC50 (SCTR; [1]): 5010 nM
- Selectivity (GLP1R; [1]): 312500
- EC50 (GLP1R; [2]): 0.0158 nM

SMILES: CC[C@H](C)[C@H](NC(=O)[C@H](Cc1ccccc1)NC(=O)[C@H](CCCNC(=N)N)NC(=O)[C@H](CCC(N)=O)NC(=O)[C@H](CC(C)C)NC(=O)[C@H](C)NC(=O)[C@H](C)NC(=O)CNC(=O)[C@H](CCC(=O)O)NC(=O)[C@H](CC(C)C)NC(=O)[C@H](CC(C)C)NC(=O)[C@H](CCCNC(=N)N)NC(=O)[C@H](CO)NC(=O)[C@H](CC(C)C)NC(=O)[C@H](CC(=O)O)NC(=O)[C@H](CO)NC(=O)[C@@H](NC(=O)[C@H](Cc1ccccc1)NC(=O)[C@@H](NC(=O)CNC(=O)[C@H](CCC(=O)O)NC(=O)C(C)(C)NC(=O)[C@@H](N)Cc1c[nH]cn1)[C@@H](C)O)[C@@H](C)O)C(=O)N[C@@H](CCC(N)=O)C(=O)N[C@@H](Cc1c[nH]c2ccccc12)C(=O)N[C@@H](CC(C)C)C(=O)N[C@H](C(N)=O)C(C)C [compound 216] (H-H[Aib]EGTFTSDLSRLLEGAALQRFIQWLV-NH2)
- EC50 (SCTR; [3]): 0.501 nM
- EC50 (SCTR; [4]): 0.501 nM
- Selectivity (GLP1R; [3]): 13
- Selectivity (GLP1R; [4]): 13
- EC50 (GLP1R; Table 3, position X^10 variants of GUB06-046, read-out: pEC50 hGLPR1 (converted)): 0.0398 nM
- EC50 (GLP1R; Table 4, position X12 variants of GUB06-046, read-out: pEC50 hGLPR1 (converted)): 0.0398 nM

SMILES: CC[C@H](C)[C@H](NC(=O)[C@H](Cc1ccccc1)NC(=O)[C@H](CCCNC(=N)N)NC(=O)[C@H](CCC(N)=O)NC(=O)[C@H](CC(C)C)NC(=O)[C@H](C)NC(=O)[C@H](C)NC(=O)CNC(=O)[C@H](CCC(=O)O)NC(=O)[C@H](CC(C)C)NC(=O)[C@H](CC(C)C)NC(=O)[C@H](CCCNC(=N)N)NC(=O)[C@H](CO)NC(=O)[C@@H](NC(=O)[C@H](CC(=O)O)NC(=O)[C@H](CO)NC(=O)[C@@H](NC(=O)[C@H](Cc1ccccc1)NC(=O)[C@@H](NC(=O)CNC(=O)[C@H](CCC(=O)O)NC(=O)C(C)(C)NC(=O)[C@@H](N)Cc1c[nH]cn1)[C@@H](C)O)[C@@H](C)O)[C@@H](C)CC)C(=O)N[C@@H](CCC(N)=O)C(=O)N[C@@H](Cc1c[nH]c2ccccc12)C(=O)N[C@@H](CC(C)C)C(=O)N[C@H](C(N)=O)C(C)C [compound 218] (H-H[Aib]EGTFTSDISRLLEGAALQRFIQWLV-NH2)
- Selectivity (GLP1R; [3]): 459

SMILES: CC[C@H](C)[C@H](NC(=O)[C@H](Cc1ccccc1)NC(=O)[C@H](CCCNC(=N)N)NC(=O)[C@H](CCC(N)=O)NC(=O)[C@H](CC(C)C)NC(=O)[C@H](C)NC(=O)[C@H](C)NC(=O)CNC(=O)[C@H](CCC(=O)O)NC(=O)[C@H](CC(C)C)NC(=O)[C@H](CC(C)C)NC(=O)[C@H](CCCNC(=N)N)NC(=O)[C@H](CO)NC(=O)[C@H](Cc1c[nH]c2ccccc12)NC(=O)[C@H](CC(=O)O)NC(=O)[C@H](CO)NC(=O)[C@@H](NC(=O)[C@H](Cc1ccccc1)NC(=O)[C@@H](NC(=O)CNC(=O)[C@H](CCC(=O)O)NC(=O)C(C)(C)NC(=O)[C@@H](N)Cc1c[nH]cn1)[C@@H](C)O)[C@@H](C)O)C(=O)N[C@@H](CCC(N)=O)C(=O)N[C@@H](Cc1c[nH]c2ccccc12)C(=O)N[C@@H](CC(C)C)C(=O)N[C@H](C(N)=O)C(C)C [compound 219] (H-H[Aib]EGTFTSDWSRLLEGAALQRFIQWLV-NH2)
- Selectivity (GLP1R; [3]): 478

Results, then the compound that gave them:

- Selectivity (GLP1R; [3]): 114
SMILES: CC[C@H](C)[C@H](NC(=O)[C@H](Cc1ccccc1)NC(=O)[C@H](CCCNC(=N)N)NC(=O)[C@H](CCC(N)=O)NC(=O)[C@H](CC(C)C)NC(=O)[C@H](C)NC(=O)[C@H](C)NC(=O)CNC(=O)[C@H](CCC(=O)O)NC(=O)[C@H](CC(C)C)NC(=O)[C@H](CC(C)C)NC(=O)[C@H](CCCNC(=N)N)NC(=O)[C@H](CO)NC(=O)[C@H](Cc1ccc(O)cc1)NC(=O)[C@H](CC(=O)O)NC(=O)[C@H](CO)NC(=O)[C@@H](NC(=O)[C@H](Cc1ccccc1)NC(=O)[C@@H](NC(=O)CNC(=O)[C@H](CCC(=O)O)NC(=O)C(C)(C)NC(=O)[C@@H](N)Cc1c[nH]cn1)[C@@H](C)O)[C@@H](C)O)C(=O)N[C@@H](CCC(N)=O)C(=O)N[C@@H](Cc1c[nH]c2ccccc12)C(=O)N[C@@H](CC(C)C)C(=O)N[C@H](C(N)=O)C(C)C [compound 217] (H-H[Aib]EGTFTSDYSRLLEGAALQRFIQWLV-NH2)

- Selectivity (GLP1R; [3]): 891
SMILES: CC[C@H](C)[C@H](NC(=O)[C@H](Cc1ccccc1)NC(=O)[C@H](CCCNC(=N)N)NC(=O)[C@H](CCC(N)=O)NC(=O)[C@H](CC(C)C)NC(=O)[C@H](C)NC(=O)[C@H](C)NC(=O)CNC(=O)[C@H](CCC(=O)O)NC(=O)[C@H](CC(C)C)NC(=O)[C@H](CC(C)C)NC(=O)[C@H](CCCNC(=N)N)NC(=O)[C@H](CO)NC(=O)[C@@H](NC(=O)[C@H](CC(=O)O)NC(=O)[C@H](CO)NC(=O)[C@@H](NC(=O)[C@H](Cc1ccccc1)NC(=O)[C@@H](NC(=O)CNC(=O)[C@H](CCC(=O)O)NC(=O)C(C)(C)NC(=O)[C@@H](N)Cc1c[nH]cn1)[C@@H](C)O)[C@@H](C)O)C(C)C)C(=O)N[C@@H](CCC(N)=O)C(=O)N[C@@H](Cc1c[nH]c2ccccc12)C(=O)N[C@@H](CC(C)C)C(=O)N[C@H](C(N)=O)C(C)C [compound 220] (H-H[Aib]EGTFTSDVSRLLEGAALQRFIQWLV-NH2)

- Selectivity (GLP1R; [3]): 2086
SMILES: CC[C@H](C)[C@H](NC(=O)[C@H](Cc1ccccc1)NC(=O)[C@H](CCCNC(=N)N)NC(=O)[C@H](CCC(N)=O)NC(=O)[C@H](CC(C)C)NC(=O)[C@H](C)NC(=O)[C@H](C)NC(=O)CNC(=O)[C@H](CCC(=O)O)NC(=O)[C@H](CC(C)C)NC(=O)[C@H](CC(C)C)NC(=O)[C@H](CCCNC(=N)N)NC(=O)[C@H](CO)NC(=O)[C@@H]1CCCN1C(=O)[C@H](CC(=O)O)NC(=O)[C@H](CO)NC(=O)[C@@H](NC(=O)[C@H](Cc1ccccc1)NC(=O)[C@@H](NC(=O)CNC(=O)[C@H](CCC(=O)O)NC(=O)C(C)(C)NC(=O)[C@@H](N)Cc1c[nH]cn1)[C@@H](C)O)[C@@H](C)O)C(=O)N[C@@H](CCC(N)=O)C(=O)N[C@@H](Cc1c[nH]c2ccccc12)C(=O)N[C@@H](CC(C)C)C(=O)N[C@H](C(N)=O)C(C)C [compound 221] (H-H[Aib]EGTFTSDPSRLLEGAALQRFIQWLV-NH2)
